Laboratory results published in patent US5672715A, “Herbicidal substituted 3-aryl-pyrazoles” (Monsanto Company, priority 1995, dated 1997).

Columns and labels:
Type in all cases: in vivo
Morning Glory = assay: post-emergence herbicide test; details: Ipomoea, post-emergence, 0.25 lb/A; read-out: % plant inhibition
Description: (§1) Topsoil was placed in aluminum pans having holes in the bottom and compacted to a depth of 1.3 to 1.6 cm from the top of the pan. A predetermined number of seeds of each of several dicotyledonous and monocotyledonous annual plant species and/or vegetative propagules for the perennial plant species were placed on the soil and pressed into the soil surface. The seeds and/or vegetative propagules were covered with soil and leveled. The pans were then placed on a bench in the greenhouse and watered either from overheard irrigation or by subirrigation as needed. After the plants reach the desired age (two to three weeks), each pan, is removed individually to a spraying chamber and sprayed by means of an atomizer, operating at a spray pressure of 170.3 kPa […] at the application rates noted. In the spray solution was an amount of an emulsifying agent mixture to give a spray solution or suspension which contains about 0.4% by volume of the emulsifier. The spray solution or suspension contained a sufficient amount of the candidate chemical in order to give application rates of the active ingredient corresponding to those shown in Tables 4 and 5, while applying a total amount of solution or suspension equivalent to 1870 L/Ha (200 gallons/acre). […] The post-emergent herbicidal activity shown in these tables is the percent inhibition of each plant species. Testing with warm season and cool season plants is shown in tables 4a-4d and […], respectively.

Blackgrass [1] = assay: post-emergence herbicide test; details: Alopecurus myosuroides, post-emergence, 0.25 lb/A; read-out: % plant inhibition
Description: as §1

Giant Foxtail = assay: post-emergence herbicide test; details: Setaria faberi, post-emergence, 0.25 lb/A; read-out: % plant inhibition
Description: as §1

Soybean [2] = assay: post-emergence herbicide test; details: Glycine max, post-emergence, 0.25 lb/A; read-out: % plant inhibition
Description: as §1

Seedling Johnsongrass = assay: post-emergence herbicide test; details: Sorghum halepense, post-emergence, 0.25 lb/A; read-out: % plant inhibition
Description: as §1

Wild Oats [3] = assay: post-emergence herbicide test; details: Avena fatua, post-emergence, 0.25 lb/A; read-out: % plant inhibition
Description: as §1

Bedstraw Catchweed [4] = assay: post-emergence herbicide test; details: Galium aparine, post-emergence, 0.25 lb/A; read-out: % plant inhibition
Description: as §1

Cocklebur = assay: post-emergence herbicide test; details: Xanthium strumarium, post-emergence, 0.25 lb/A; read-out: % plant inhibition
Description: as §1

Common Chickweed [5] = assay: post-emergence herbicide test; details: post-emergence, 0.25 lb/A; read-out: % plant inhibition
Description: as §1

Downy Brome [6] = assay: post-emergence herbicide test; details: Bromus tectorum, post-emergence, 0.25 lb/A; read-out: % plant inhibition
Description: as §1

Barnyardgrass = assay: post-emergence herbicide test; details: Echinochloa crus-galli, post-emergence, 0.25 lb/A; read-out: % plant inhibition
Description: as §1

Wheat [7] = assay: post-emergence herbicide test; details: Triticum aestivum, post-emergence, 0.25 lb/A; read-out: % plant inhibition
Description: as §1

Green Foxtail [8] = assay: post-emergence herbicide test; details: Setaria viridis, post-emergence, 0.25 lb/A; read-out: % plant inhibition
Description: as §1

Rape [9] = assay: post-emergence herbicide test; details: post-emergence, 0.25 lb/A; read-out: % plant inhibition
Description: as §1

Corn = assay: post-emergence herbicide test; details: Zea mays, post-emergence, 0.25 lb/A; read-out: % plant inhibition
Description: as §1

Birdseye Speedwell [10] = assay: post-emergence herbicide test; details: post-emergence, 0.25 lb/A; read-out: % plant inhibition
Description: as §1

Velvetleaf [11] = assay: post-emergence herbicide test; details: Abutilon theophrasti, post-emergence, 0.25 lb/A; read-out: % plant inhibition
Description: as §1

Blackgrass [12] = assay: pre-emergence herbicide test; details: Alopecurus myosuroides, pre-emergence, 0.25 lb/A; read-out: % plant inhibition
Procedure: (§2) Topsoil was placed in an aluminum pan and compacted to a depth of 1.3 to 1.6 cm from the top of the pan. On the top of the soil was placed a predetermined number of seeds of each of several monocotyledonous and dicotyledonous annual plant species and/or vegetative propagules of various perennial plant species. The pan was then level filled with a cover layer of topsoil to which was added a known amount of active ingredient either prior to or after application of the cover layer. The active ingredient was dissolved or suspended in an organic solvent, e.g., acetone, or water as carrier for application to the cover layer. The pans were moved to a greenhouse bench where they were thereafter watered from below as needed to give adequate moisture for germination and growth. In some cases, an initial overhead irrigation of 1/4 inch of water was applied immediately after treatment.
(§3) Approximately 14 days after seeding and treating, the pans were observed and the results (% inhibition) were recorded.
(§4) The tables below summarize the results of the pre-emergence herbicidal activity tests of compounds of this invention tested with warm season plants (Tables 2a-2d) and cool season plants (Tables 3a and 3b). The herbicidal rating shown in these tables is the percent inhibition of each plant species. The plant species usually regarded as weeds are identified in the tables by single letter headings and crop species identified by two letter headings both headings being above the columns in accordance with the following legend: […]

Soybean [13] = assay: pre-emergence herbicide test; details: 0.25 lb/A
Procedure: as §2, §3, §4

Wild Oats [14] = assay: pre-emergence herbicide test; details: Avena fatua, pre-emergence, 0.25 lb/A; read-out: % plant inhibition
Procedure: as §2, §3, §4

Bedstraw Catchweed [15] = assay: pre-emergence herbicide test; details: Galium aparine, pre-emergence, 0.25 lb/A; read-out: % plant inhibition
Procedure: as §2, §3, §4

Common Chickweed [16] = assay: pre-emergence herbicide test; details: pre-emergence, 0.25 lb/A; read-out: % plant inhibition
Procedure: as §2, §3, §4

Downy Brome [17] = assay: pre-emergence herbicide test; details: Bromus tectorum, pre-emergence, 0.25 lb/A; read-out: % plant inhibition
Procedure: as §2, §3, §4

Wheat [18] = assay: pre-emergence herbicide test; details: Triticum aestivum, pre-emergence, 0.25 lb/A; read-out: % plant inhibition
Procedure: as §2, §3, §4

Green Foxtail [19] = assay: pre-emergence herbicide test; details: Setaria viridis, pre-emergence; 0.25 lb/A; read-out: % plant inhibition
Procedure: as §2, §3, §4

Rape [20] = assay: pre-emergence herbicide test; details: pre-emergence, 0.25 lb/A; read-out: % plant inhibition
Procedure: as §2, §3, §4

Birdseye Speedwell [21] = assay: pre-emergence herbicide test; details: pre-emergence, 0.25 lb/A; read-out: % plant inhibition
Procedure: as §2, §3, §4

Velvetleaf [22] = assay: pre-emergence herbicide test; details: Abutilon theophrasti, pre-emergence, 0.25 lb/A; read-out: % plant inhibition
Procedure: as §2, §3, §4

SMILES	inhibition at 280.212 g/ha (Morning Glory) [%]	inhibition at 280.212 g/ha (Blackgrass [1]) [%]	inhibition at 280.212 g/ha (Giant Foxtail) [%]	inhibition at 280.212 g/ha (Soybean [2]) [%]	inhibition at 280.212 g/ha (Seedling Johnsongrass) [%]	inhibition at 280.212 g/ha (Wild Oats [3]) [%]	inhibition at 280.212 g/ha (Bedstraw Catchweed [4]) [%]	inhibition at 280.212 g/ha (Cocklebur) [%]	inhibition at 280.212 g/ha (Common Chickweed [5]) [%]	inhibition at 280.212 g/ha (Downy Brome [6]) [%]	inhibition at 280.212 g/ha (Barnyardgrass) [%]	inhibition at 280.212 g/ha (Wheat [7]) [%]	inhibition at 280.212 g/ha (Green Foxtail [8]) [%]	inhibition at 280.212 g/ha (Rape [9]) [%]	inhibition at 280.212 g/ha (Corn) [%]	inhibition at 280.212 g/ha (Birdseye Speedwell [10]) [%]	inhibition at 280.212 g/ha (Velvetleaf [11]) [%]	inhibition at 280.212 g/ha (Blackgrass [12]) [%]	inhibition at 280.212 g/ha (Wild Oats [14]) [%]	inhibition at 280.212 g/ha (Bedstraw Catchweed [15]) [%]	also measured
Cc1c(-c2cc(CO)c(Cl)cc2F)nn(C)c1C(F)(F)F [Compound 9, 2-Chloro-5-[1,4-dimethyl-5-(trifluoromethyl)-1H-pyrazol-3-yl]-4-fluorobenzenemethanol]	45	20	10	60	20	25	50	35	15	25	25	13	20	20	10	35	95	50	5	20	% plant inhibition (Soybean [13]): 0%; inhibition at 280.212 g/ha (Common Chickweed [16]): 90%; inhibition at 280.212 g/ha (Downy Brome [17]): 5%; inhibition at 280.212 g/ha (Wheat [18]): 0%; inhibition at 280.212 g/ha (Green Foxtail [19]): 100%; inhibition at 280.212 g/ha (Rape [20]): 30%; inhibition at 280.212 g/ha (Birdseye Speedwell [21]): 90%; inhibition at 280.212 g/ha (Velvetleaf [22]): 98%
Cc1c(-c2cc(CBr)c(Cl)cc2F)nn(C)c1C(F)(F)F [Compound 10, 3-[5-(Bromomethyl)-4-chloro-2-fluorophenyl]-1,4-dimethyl-5-(trifluoromethyl)-1H-pyrazole]	35	20	15	8	15	10	25	55	15	25	5	10	50	35	3	90	90	20	5	30	inhibition at 280.212 g/ha (Common Chickweed [16]): 5%; inhibition at 280.212 g/ha (Downy Brome [17]): 25%; inhibition at 280.212 g/ha (Wheat [18]): 0%; inhibition at 280.212 g/ha (Green Foxtail [19]): 98%; inhibition at 280.212 g/ha (Rape [20]): 50%; inhibition at 280.212 g/ha (Birdseye Speedwell [21]): 50%
COCc1cc(-c2nn(C)c(C(F)(F)F)c2C)c(F)cc1Cl [Compound 11]	25	15	0	20	5	5	50	15	10	10	0	6	25	5	15	60	50	60	20	75	inhibition at 280.212 g/ha (Common Chickweed [16]): 25%; inhibition at 280.212 g/ha (Downy Brome [17]): 10%; inhibition at 280.212 g/ha (Wheat [18]): 0%; inhibition at 280.212 g/ha (Green Foxtail [19]): 100%; inhibition at 280.212 g/ha (Rape [20]): 15%; inhibition at 280.212 g/ha (Birdseye Speedwell [21]): 95%
CC(C)OC(=O)c1cc(-c2nn(C)c(C(F)(F)F)c2C=O)c(F)cc1Cl [Compound 12, 2-Chloro-4-fluoro-5-[4-formyl-1-methyl-5-(trifluoromethyl)-1H-pyrazol-3-yl]benzoic acid, 1-methylethyl ester]	99	50	35	85	65	85	95	98	100	90	80	30	90	100	15	100	99	60	60	65	inhibition at 280.212 g/ha (Common Chickweed [16]): 85%; inhibition at 280.212 g/ha (Downy Brome [17]): 60%; inhibition at 280.212 g/ha (Wheat [18]): 5%; inhibition at 280.212 g/ha (Green Foxtail [19]): 98%; inhibition at 280.212 g/ha (Rape [20]): 15%; inhibition at 280.212 g/ha (Birdseye Speedwell [21]): 80%
